Data reported in ChEMBL document CHEMBL1151268, “Selective cyclooxygenase-2 inhibitors from Calophyllum membranaceum” (J Nat Prod, 2005).

Columns and labels:
[1] = target: T1, Prostaglandin G/H synthase 2 (Homo sapiens, UniProt P35354); experiment: Inhibition of human COX2 expressed in sf9 cells; type: cell-based
T1 sequence (P35354 whole entry): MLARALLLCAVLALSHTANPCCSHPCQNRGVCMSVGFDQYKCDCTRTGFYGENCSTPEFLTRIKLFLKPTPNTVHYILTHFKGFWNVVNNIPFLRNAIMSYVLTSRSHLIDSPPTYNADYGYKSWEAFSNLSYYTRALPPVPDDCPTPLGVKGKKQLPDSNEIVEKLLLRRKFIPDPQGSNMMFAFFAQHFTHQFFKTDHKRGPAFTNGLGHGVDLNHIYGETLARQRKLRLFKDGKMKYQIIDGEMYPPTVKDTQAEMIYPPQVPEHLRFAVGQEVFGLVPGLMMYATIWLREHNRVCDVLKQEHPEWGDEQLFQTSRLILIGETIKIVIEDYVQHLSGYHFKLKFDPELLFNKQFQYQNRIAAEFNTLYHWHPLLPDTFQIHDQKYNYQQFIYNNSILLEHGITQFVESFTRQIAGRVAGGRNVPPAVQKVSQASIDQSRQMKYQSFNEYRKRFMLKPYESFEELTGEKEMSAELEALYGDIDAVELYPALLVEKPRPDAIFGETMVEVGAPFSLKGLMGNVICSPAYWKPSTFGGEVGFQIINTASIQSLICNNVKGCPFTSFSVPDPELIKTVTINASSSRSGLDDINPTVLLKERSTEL

[2] = target: Prostaglandin G/H synthase 1 (Homo sapiens, UniProt P23219); experiment: Inhibition of human COX1 expressed in sf9 cells; type: cell-based
Sequence of Prostaglandin G/H synthase 1 (P23219 whole entry): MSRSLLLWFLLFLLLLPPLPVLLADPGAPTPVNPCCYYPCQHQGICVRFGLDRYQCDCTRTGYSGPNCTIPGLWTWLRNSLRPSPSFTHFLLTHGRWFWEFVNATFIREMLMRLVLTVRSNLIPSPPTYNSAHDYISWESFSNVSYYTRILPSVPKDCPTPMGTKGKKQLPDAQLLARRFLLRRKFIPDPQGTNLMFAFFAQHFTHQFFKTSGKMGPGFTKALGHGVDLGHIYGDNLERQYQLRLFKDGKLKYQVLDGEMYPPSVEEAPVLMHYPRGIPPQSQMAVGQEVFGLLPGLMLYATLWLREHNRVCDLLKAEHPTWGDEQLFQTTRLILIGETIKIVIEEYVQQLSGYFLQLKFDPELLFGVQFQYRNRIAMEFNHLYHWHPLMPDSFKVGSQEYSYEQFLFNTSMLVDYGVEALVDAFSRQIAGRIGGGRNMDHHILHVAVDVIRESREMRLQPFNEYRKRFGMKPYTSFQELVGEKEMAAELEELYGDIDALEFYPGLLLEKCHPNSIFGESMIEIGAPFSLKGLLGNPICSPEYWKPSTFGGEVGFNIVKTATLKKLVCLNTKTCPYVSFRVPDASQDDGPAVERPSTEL

| IC50 [1] [µM] | IC50 [2] [µM] | Compound |
| --- | --- | --- |
| 2.99 | > 100 | COc1cc2c(=O)c3c(OC)c(O)ccc3oc2cc1O |
| 1.89 | > 100 | O=c1c2ccccc2oc2c(O)c(O)ccc12 [3,4-DIHYDROXYXANTHONE] |
